Molecular target: T1, HA-DDX3X immunoprecipitated from 293T cells (Homo sapiens, UniProt O00571)
T1 construct: host or cells: 293T cells, transient transfection, anti-HA immunoprecipitation; protein used on beads
Assay: Qualitative in vitro helicase assay with immunoprecipitated HA-DDX3X (dsRNA unwinding)
Format: biochemical
Details: human protein immunoprecipitated from 293T cells
Protocol: 293T cells (3 × 10^5) were seeded in 6-well plates and, after 24 h, transfected with 1 μg of HA-DDX3 (Addgene plasmid # 44975) by using the Lipofectamine reagent (Thermo Fischer Scientific, Waltham, MA, USA). After 36 h, cells were lysed in NP-40 Lysis Buffer (20 mM HEPES pH = 7.5, 10 mM EGTA pH = 8, 40 mM β-glycerolphosphate, 1% NP40, 2.5 mM MgCl2, 2 mM Orthovanadate, 2 mM NaF, 1 mM DTT, and 1X protease inhibitors mixture) and 2 mg of proteins were immunoprecipitated with anti-HA antibodies (Covance, Princeton, NJ, USA) in NP40 lysis buffer. Immunoprecipitated samples were washed twice with lysis buffer and one time in helicase reaction buffer (50 mM Tris HCl pH = 8, 1 mM DTT, 5% glycerol, 10 mM MgCl2). Beads were then resuspended in 100 μL in helicase reaction buffer. […]
Ultimately, reactions were performed in a final volume 100 μL of helicase reaction buffer plus ATP 4 mM, 30 μL of beads used to immunoprecipitate HA-DDX3X, 20 nM of 18/36mer dsRNA, and 100 nM of competitor at 37 °C for 1 h and stopped by adding 10 μL of a stopping solution (EDTA 60 mM pH = 8, 40% glycerol, 0,6% SDS, 1% Orange G). […] Quantification of the ssRNA was performed by the ImageJ software (National Institutes of Health, Bethesda, MD, USA).

T1 sequence (O00571 whole entry): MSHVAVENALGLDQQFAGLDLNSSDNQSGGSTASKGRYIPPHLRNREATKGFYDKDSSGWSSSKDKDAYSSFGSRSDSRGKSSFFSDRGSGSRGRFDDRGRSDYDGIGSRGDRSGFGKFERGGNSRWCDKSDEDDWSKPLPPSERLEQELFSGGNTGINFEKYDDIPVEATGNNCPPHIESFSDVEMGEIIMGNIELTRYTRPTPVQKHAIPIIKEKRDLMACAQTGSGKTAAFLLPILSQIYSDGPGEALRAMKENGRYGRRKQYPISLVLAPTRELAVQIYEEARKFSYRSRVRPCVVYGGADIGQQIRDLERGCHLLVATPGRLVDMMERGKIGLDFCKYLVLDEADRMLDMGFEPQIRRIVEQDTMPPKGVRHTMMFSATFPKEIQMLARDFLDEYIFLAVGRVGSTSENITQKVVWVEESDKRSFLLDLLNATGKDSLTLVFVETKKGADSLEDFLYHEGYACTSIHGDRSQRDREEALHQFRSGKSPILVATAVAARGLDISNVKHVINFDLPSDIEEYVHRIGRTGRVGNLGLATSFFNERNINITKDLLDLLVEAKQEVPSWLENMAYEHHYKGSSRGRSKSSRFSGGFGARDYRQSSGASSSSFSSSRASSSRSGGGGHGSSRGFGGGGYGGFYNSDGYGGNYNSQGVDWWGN

inhibition of DDX3X helicase activity, qualitative: activity comparable to RK33
SMILES: CCCCc1cn(-c2ccc(NC(=O)Nc3ccccc3C(F)(F)F)cc2)nn1 [FHP01]

Reference: article PMC8507746, “The FHP01 DDX3X Helicase Inhibitor Exerts Potent Anti-Tumor Activity In Vivo in Breast Cancer Pre-Clinical Models” (Cancers, 2021)
